Data as given in patent US12178892B2, “Compounds for positron emission tomography” (Endocyte, Inc., priority 2013, dated 2024).

What was measured:
[1] = system: A549 tumor xenografts; test: Ex vivo (postmortem) biodistribution, A549 tumor xenografts; set-up: species or system nude mice; details: mouse
Excerpt: It is to be understood that the vertical axis has been expanded and that the kidney data is truncated. […] It is to be understood that the vertical axis has been expanded and that the kidney data is truncated. […] EXAMPLE. […] Without being bound by theory, it is believed herein that the highest accumulation of radioactivity in kidneys, along with the relative low uptake of radiotracer in the hepatobiliary system i.e. liver, bile and intestine/feces supports that renal elimination is the predominant excretion pathway.

[2] = system: KB tumor xenografts; test: Ex vivo (postmortem) biodistribution, KB tumor xenografts; assay type: in vivo, nude mice; details: for FR specificity: in both KB xenograft tumor tissues and A549 xenograft tumor tissues; for radiotracer level in kidneys: mouse, in vivo
Excerpt: EXAMPLE. […] Without being bound by theory, it is believed herein that the highest accumulation of radioactivity in kidneys, along with the relative low uptake of radiotracer in the hepatobiliary system i.e. liver, bile and intestine/feces supports that renal elimination is the predominant excretion pathway.

[3] = system: FR; test: Binding in A549 xenograft homogenates; details: A549 xenografts
[4] = target: T1, PSMA (Homo sapiens, UniProt Q04609); test: In vitro study in PSMA(−) and PSMA(+) cell lines, Kd; assay type: cell-based; details: PSMA(−) cell line (PC3) and PSMA(+) cell lines (LnCaP and PIP—PC3); ^67Ga as surrogate of ^68Ga
T1 construct: LnCap is a PSMA (+) cell line; and PIP—PC3 is a transfect cell line with higher PSMA expression; endogenous in cells; host or cells: LnCaP (endogenous) and PIP-PC3 (PSMA-transfected PC3); PC3 as the PSMA(-) control
Description: (§1) EXAMPLE. In vitro evaluation of DUPA-EAOA-Phe-Phe-NOTA-^68Ga radiotracer (^68Ga-QC08009). ^67Ga has a longer half life than ^68Ga (about 3.3 days versus about 68 minutes, respectively). Thus, ^67Ga is used as a surrogate of ^68Ga for in vitro evaluation of Kd values and tissue imaging. It is to be understood that the in vitro evaluation of Kd values and tissue imaging observed for ^67Ga is predictive of ^68Ga. DUPA-EAOA-Phe-Phe-NOTA-^67Ga (67Ga-NOTA-LC-PSMA2) was prepared in nearly quantitative radiochemical yield. […] PC3 is a PSMA (−) cell line; LnCap is a PSMA (+) cell line; and PIP—PC3 is a transfect cell line with higher PSMA expression.

[5] = system: PSMA(+) prostate cancer tissues; test: Binding to PSMA(+) prostate cancer tissues (tissue imaging); details: compared to ^67Ga-DKFZ-PSMA11
Description: as §1

[6] = system: PIP—PC3 cells; test: In vitro uptake by PIP—PC3 cells; assay type: cell-based
Description: as §1

[7] = system: PC3 cells; test: In vitro uptake by PC3 cells; assay type: cell-based; details: PC3, PSMA (−) cell line
Description: as §1

[8] = system: LnCaP cells; test: In vitro uptake by LnCaP cells; assay type: cell-based
Description: as §1

[9] = in vivo; set-up: species or system mice; details: mouse, total radioactivity
Excerpt: (§2) EXAMPLE. In vivo PET imaging and BioD study of DUPA-EAOA-Phe-Phe-NOTA-^68Ga radiotracer (^68Ga-QC08009). […] Without being bound by theory, it is believed herein that the data support that the primary elimination pathway is in urine.

[10] = system: PSMA (+) LnCaP xenografts; test: in vivo; set-up: species or system mice; details: mouse
Excerpt: as §2

[11] = target: T2, FR (Homo sapiens, UniProt P15328); test: Binding to FR in Cal51 xenograft tumor crude homogenate (concentration dependent binding, Scatchard analysis); details: Cal51 xenografts
T2 construct: to FR in KB and Cal51 tumor crude homogenate; from tissue; host or cells: KB and Cal51 tumour xenograft crude homogenates
Description: (§3) EXAMPLE. The specificity of the radionuclide containing conjugates binding to FR is evaluated against KB xenografts homogenates and Cal51 xenografts homogenates. […] Scatchard analyses were also performed. […] Without being bound by theory, it is believed herein that the moderate expression of FR in Cal51 xenografts accounts for the lower binding affinity. Binding affinities of ^18F-AIF-QC07017 (2) to FR in KB and Cal51 tumor crude homogenate.

[12] = system: KB tumor xenografts; test: μPET imaging under baseline and competed conditions in nude mice bearing KB tumor xenografts; assay type: in vivo; details: competed group, 100 μg of folic acid 10 min before i.v. injection
Description: EXAMPLE. μPET imaging was performed on nude mice bearing KB tumor xenografts under baseline and competed conditions to evaluate the in vivo binding specificity of ^18F-AIF-QC07017 (2) to FR. Nude mice bearing KB tumor xenografts on their left shoulder were injected with 0.30-0.40 mCi (2). […] Without being bound by theory, it is believed herein that the high radioactivity found in kidneys was due to the uptake mediated by FR that is expressed in the proximal tubule cells in kidneys and the potential accumulation of radiotracer via renal excretion, which was further supported by the biodistribution studies described herein. With the exception of the liver, significant uptake in other organs was not observed.

[13] = target: T2, FR; test: Binding to FR in KB xenograft tumor crude homogenate (concentration dependent binding, Scatchard analysis); details: for non-specific binding: KB homogenates; for binding sites and affinity (Scatchard analyses): all cell xenografts
Description: as §3

[14] = KB xenografts, tumor crude homogenate

T2 sequence (P15328 25-234): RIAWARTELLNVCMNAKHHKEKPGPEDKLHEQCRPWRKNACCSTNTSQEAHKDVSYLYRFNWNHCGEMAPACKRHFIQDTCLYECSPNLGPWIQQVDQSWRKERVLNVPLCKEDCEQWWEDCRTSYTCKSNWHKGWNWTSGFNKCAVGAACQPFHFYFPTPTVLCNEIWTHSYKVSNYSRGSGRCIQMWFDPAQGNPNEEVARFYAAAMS
T1 sequence (Q04609 whole entry): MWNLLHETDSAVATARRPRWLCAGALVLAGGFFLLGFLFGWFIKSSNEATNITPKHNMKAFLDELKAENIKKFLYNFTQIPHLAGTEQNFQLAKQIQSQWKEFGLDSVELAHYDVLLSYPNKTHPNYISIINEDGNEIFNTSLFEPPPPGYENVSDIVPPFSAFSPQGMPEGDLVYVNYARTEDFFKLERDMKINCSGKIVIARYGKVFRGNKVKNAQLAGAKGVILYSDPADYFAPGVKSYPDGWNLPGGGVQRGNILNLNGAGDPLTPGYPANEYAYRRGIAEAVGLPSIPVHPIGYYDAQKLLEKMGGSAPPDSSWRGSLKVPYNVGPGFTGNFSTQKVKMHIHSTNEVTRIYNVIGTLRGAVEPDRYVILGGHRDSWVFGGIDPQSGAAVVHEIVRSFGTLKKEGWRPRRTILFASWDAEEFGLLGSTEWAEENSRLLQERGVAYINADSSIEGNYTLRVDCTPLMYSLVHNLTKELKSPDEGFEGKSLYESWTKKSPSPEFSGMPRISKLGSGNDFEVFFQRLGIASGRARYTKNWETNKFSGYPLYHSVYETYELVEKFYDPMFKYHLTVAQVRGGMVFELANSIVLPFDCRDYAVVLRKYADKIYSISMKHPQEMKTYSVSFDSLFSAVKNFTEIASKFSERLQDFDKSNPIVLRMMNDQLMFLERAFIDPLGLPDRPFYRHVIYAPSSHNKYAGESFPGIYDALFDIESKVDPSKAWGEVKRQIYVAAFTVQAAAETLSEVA

Row | SMILES | accumulation in A549 xenograft tumor tissues [1] | FR specificity [2] | radiotracer level in kidneys [2] | binding affinity (in words) [3] | binding affinity (in words) [11] | Bmax ([11]; tumor crude homogenate) | non-specific binding [13] | binding affinity (in words) ([13]; KB xenografts) | Bmax [13, 14] | binding sites and affinity (Scatchard analyses) [13] | further results
1 | Nc1nc2ncc(CNc3ccc(C(=O)N[C@@H](CCC(=O)NCCOCCOCCOCCOCCOCCOCCOCCOCCOCCOCCOCCOCCC(=O)NCCNC(=O)CN4CCN(CC(=O)O)CCN(CC(=O)O)CC4)C(=O)O)cc3)nc2c(=O)[nH]1 (Al18F complex, metal not drawn) [^18F-AIF-QC07043] | comparable to the liver | comparable to etarfolatide (EC20) | highest signal | lowest binding affinity | – | – | – | – | – | – | –
2 | O=C(O)CCC(NC(=O)NC(CCC(=O)NCCCCCCCC(=O)N[C@@H](Cc1ccccc1)C(=O)N[C@@H](Cc1ccccc1)C(=O)NCCNC(=O)CN1CCN(CC(=O)O)CCN(CC(=O)O)CC1)C(=O)O)C(=O)O (single isomer, unassigned) [^67Ga-NOTA-LC-PSMA2, DUPA-EAOA-Phe-Phe-NOTA-^67Ga, metal not drawn] | – | – | – | – | – | – | – | – | – | – | Kd [4]: 8.45 ± 2.16 nM; binding to PSMA(+) prostate cancer tissues [5]: superior binding
3 | O=C(O)CCC(NC(=O)NC(CCC(=O)NCCCCCCCC(=O)N[C@@H](Cc1ccccc1)C(=O)N[C@@H](Cc1ccccc1)C(=O)NCCNC(=O)CN1CCN(CC(=O)O)CCN(CC(=O)O)CC1)C(=O)O)C(=O)O (single isomer, unassigned) [^68Ga-QC08009, DUPA-EAOA-Phe-Phe-NOTA-^68Ga, metal not drawn] | – | – | – | – | – | – | – | – | – | – | uptake by cells when competed ([6]; PIP—PC3, competing ligand): blocked by competing ligand; uptake by cells ([6]; PIP—PC3, transfect cell line with higher PSMA expression): substantial, with PIP—PC3 cells showing the highest uptake; uptake by cells [7]: minimal; uptake by cells when competed ([7]; competing ligand): did not change when competed; uptake by cells ([8]; PSMA (+) cell line): substantial; uptake by cells when competed ([8]; competing ligand): blocked by competing ligand; tissue uptake dose [9]: 4.29 %ID; accumulation in kidneys [10]: minor accumulation
4 | Nc1nc2ncc(CNc3ccc(C(=O)N[C@@H](CCC(=O)NCCOCCOCCNC(=O)CN4CCN(CC(=O)O)CCN(CC(=O)O)CC4)C(=O)O)cc3)nc2c(=O)[nH]1 [^18F-AIF-QC07017] | comparable to the liver | comparable to etarfolatide (EC20) | highest signal | lowest binding affinity | Moderate binding affinity | 36 nM | Significant non-specific binding was not observed | high specific binding affinity | 511 nM | bound one site with high affinity | Kd ([11]; tumor crude homogenate): 1.1 nM; tumor uptake under competition with folic acid [12]: completely inhibited; Kd [13, 14]: 0.7 nM; binding by self competition ([13]; human tumor xenografts (KB and Cal51)): Displaceable and saturable binding
5 | Nc1nc2ncc(CNc3ccc(C(=O)N[C@@H](CCC(=O)NCCOCCOCCOCCOCCOCCOCCOCCOCCOCCOCCOCCOCCC(=O)NCCNC(=O)CN4CCN(CC(=O)O)CCN(CC(=O)O)CC4)C(=O)O)cc3)nc2c(=O)[nH]1 [^18F-AIF-QC07043] | – | – | – | – | Moderate binding affinity | 13 nM | Significant non-specific binding was not observed | high specific binding affinity | 241 nM | bound one site with high affinity | –
